Test results as given in publication PMC7246923, “Inhibition of Xanthine Oxidase-Catalyzed Xanthine and 6-Mercaptopurine Oxidation by Flavonoid Aglycones and Some of Their Conjugates” (International Journal of Molecular Sciences, 2020).
Read-outs that look alike come from different tables or passages of the source.

Columns and labels:
[1] = target: T1, Xanthine oxidase (XO; from bovine milk) (Bos taurus, UniProt P80457); experiment: XO-catalyzed xanthine oxidation (uric acid formation), HPLC; assay type: biochemical; settings: for IC50 (xanthine)/IC50 (6MP): ratio of IC50 values of xanthine and 6MP assays; for IC50: substrate xanthine 5 μM, inhibitor 0–20 μM
T1 construct: Xanthine oxidase (XO; from bovine milk); purchased Sigma-Aldrich; host or cells: bovine milk
Protocol: (§1) Chrysin-7-glucuronide (C7G) and 6-thiouric acid were purchased from Carbosynth (Berkshire, UK). Chrysin-7-sulfate (C7S) was synthetized as described. Stock solutions of flavonoids (each 2 mM) were prepared in dimethyl sulfoxide (DMSO) and stored at −20 °C.
(§2) To test the inhibitory effects of flavonoids and their metabolites on the XO-catalyzed oxidation of xanthine and 6MP, the previously reported methods were applied without modifications. […] In each experiment, solvent controls (DMSO) were used. Metabolite formation (% of control) was plotted vs. the inhibitor concentrations in decimal logarithmic scale. IC50 values were evaluated by sigmoidal fitting, employing GraphPad Prism 8 software (San Diego, CA, USA).
(§3) After the in vitro XO assays, xanthine and uric acid as well as 6MP and 6-thiouric acid were quantified by the HPLC-UV methods described in our previous report, without any modifications.

[2] = target: T1, Xanthine oxidase (XO; from bovine milk); experiment: XO-catalyzed 6-mercaptopurine oxidation (6-thiouric acid formation), HPLC; assay type: biochemical
Protocol: as §1, §2, §3

hyperuricaemic mice = settings: cited from earlier work; for serum uric acid levels: orally administered; for serum uric acid concentrations: hyperuricemic mice, per os, API 50 and 100 mg/kg, KAE 50 and 100 mg/kg, LUT 100 mg/kg
normal mice = tested on: normal mice; design: method as in PMID 17666819; settings: per os; cited from earlier work
[3] = substrate 6MP 5 μM, inhibitor 0–20 μM, read-out: IC50(6MP)
[4] = hyperuricaemic mice, LUT 16–100 mg/kg, LUT-7-O-glucoside 50 and 100 mg/kg

T1 sequence (P80457 whole entry): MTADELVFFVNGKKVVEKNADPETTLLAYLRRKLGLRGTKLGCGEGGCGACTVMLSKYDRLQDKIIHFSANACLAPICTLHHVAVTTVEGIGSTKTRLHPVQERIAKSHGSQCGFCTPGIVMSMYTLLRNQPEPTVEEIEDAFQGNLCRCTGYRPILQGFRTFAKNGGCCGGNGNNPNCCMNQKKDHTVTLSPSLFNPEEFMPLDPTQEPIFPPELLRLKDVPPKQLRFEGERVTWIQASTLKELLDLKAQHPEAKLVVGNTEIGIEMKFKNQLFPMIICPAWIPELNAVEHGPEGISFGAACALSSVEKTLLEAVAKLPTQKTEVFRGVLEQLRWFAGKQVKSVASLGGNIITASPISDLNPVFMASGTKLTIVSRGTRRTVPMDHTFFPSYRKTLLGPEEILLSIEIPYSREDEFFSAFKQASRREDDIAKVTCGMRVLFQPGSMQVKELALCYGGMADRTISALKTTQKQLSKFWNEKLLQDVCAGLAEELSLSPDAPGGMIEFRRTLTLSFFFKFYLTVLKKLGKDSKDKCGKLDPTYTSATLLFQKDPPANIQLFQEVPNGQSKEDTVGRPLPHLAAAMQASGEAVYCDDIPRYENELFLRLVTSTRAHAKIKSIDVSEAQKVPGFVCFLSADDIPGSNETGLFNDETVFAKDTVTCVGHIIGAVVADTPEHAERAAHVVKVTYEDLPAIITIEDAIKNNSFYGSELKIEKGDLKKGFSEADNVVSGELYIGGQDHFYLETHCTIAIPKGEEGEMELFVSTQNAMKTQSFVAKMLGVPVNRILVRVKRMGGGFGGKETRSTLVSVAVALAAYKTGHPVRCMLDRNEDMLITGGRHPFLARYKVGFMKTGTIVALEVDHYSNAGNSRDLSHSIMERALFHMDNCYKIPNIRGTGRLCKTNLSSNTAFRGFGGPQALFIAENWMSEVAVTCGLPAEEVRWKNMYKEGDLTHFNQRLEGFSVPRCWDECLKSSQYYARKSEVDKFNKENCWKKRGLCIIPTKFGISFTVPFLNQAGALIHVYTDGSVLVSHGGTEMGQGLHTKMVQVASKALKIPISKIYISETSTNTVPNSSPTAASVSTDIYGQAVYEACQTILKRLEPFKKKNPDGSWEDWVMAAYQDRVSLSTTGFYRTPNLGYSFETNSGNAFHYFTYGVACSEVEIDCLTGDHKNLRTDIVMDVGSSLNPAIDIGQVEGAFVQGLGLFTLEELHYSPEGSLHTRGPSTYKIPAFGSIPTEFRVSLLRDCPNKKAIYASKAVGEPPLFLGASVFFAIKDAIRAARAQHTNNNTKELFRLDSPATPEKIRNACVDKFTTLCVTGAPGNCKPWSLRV

Structure (SMILES)	IC50 (xanthine)/IC50 (6MP) [1]	IC50 [1]	IC50 [2, 3]	serum uric acid concentrations (hyperuricaemic mice)	further results
COc1cc(-c2oc3cc(O)ccc3c(=O)c2O)ccc1O [Geraldol, 3’-O-methylfisetin]	0.57	680 nM	1190 nM		
O=c1cc(-c2ccc(O)cc2)oc2cc(O)cc(O)c12 [Apigenin, 5,7,4’-trihydroxyflavone]	3.00	270 nM	90 nM	significantly decreased	serum uric acid levels (hyperuricaemic mice; hyperuricaemic mice, API 175–700 mg/kg): did not affect; IC50 ([2]; substrate 6MP 5 μM, read-out: IC50 values on 6MP oxidation): < 100 nM
O=c1cc(-c2ccc(O)c(O)c2)oc2cc(O[C@@H]3O[C@H](CO)[C@@H](O)[C@H](O)[C@H]3O)cc(O)c12 [LUT-7-O-glucoside]					serum uric acid levels (hyperuricaemic mice; [4]): did not affect
O=c1c(O)c(-c2ccc(O)c(O)c2)oc2cc(O)ccc12 [Fisetin, 3,7,3′,4′-tetrahydroxyflavone]	0.78	860 nM	1100 nM		
O=c1cc(-c2ccccc2)oc2cc(O)cc(O)c12 [Chrysin, 5,7-dihydroxyflavone]	3.18				IC50 [2]: 220 nM
O=c1c(O)c(-c2ccc(O)cc2)oc2cc(O)cc(O)c12 [Kaempferol, 3,5,7,4′-tetrahydroxyflavone]				significantly decreased	uric acid levels (normal mice): decreased
O=c1cc(-c2ccc(O)c(O)c2)oc2cc(O)cc(O)c12 [Luteolin, 5,7,3′,4′-tetrahydroxyflavone]	0.59	160 nM	270 nM	significantly decreased	uric acid levels (hyperuricaemic mice; hyperuricaemic mice, i.p. administration, 50 mg/kg): slight but significant decrease; serum uric acid levels (hyperuricaemic mice; [4]): did not affect
O=c1cc(-c2ccccc2)oc2cc(OS(=O)(=O)O)cc(O)c12 [Chrysin-7-sulfate, chrysin-7-sulfate]		> 20000 nM	2230 nM		
O=C(O)[C@H]1O[C@@H](Oc2cc(O)c3c(=O)cc(-c4ccccc4)oc3c2)[C@H](O)[C@@H](O)[C@@H]1O [Chrysin-7-glucuronide, chrysin-7-glucuronide]		> 20000 nM	> 20000 nM		
